Assay results published in patent publication US11759455B2, “Substituted 1H-imidazo[4,5-b]pyridin-2(3H)-ones and their use as GLUN2B receptor modulators” (JANSSEN PHARMACEUTICA NV, priority 2016, dated 2023).

Experiments:
[1] = biological target: T1, human GluN1/GluN2B NMDA receptors (Homo sapiens, UniProt Q05586+Q13224); assay: Cell-based calcium flux (FLIPR) assay on cloned human NR1/NR2B ion channels expressed in mammalian cells (standard and HTS buffer variants); conditions: standard assay buffer (0.5 mM MgCl2 dye loading; 137 mM NaCl, 4 mM KCl assay buffer), human GluN1/GluN2B cells, read-out: NR2B IC50 (μM) standard assay;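 note: stable Tet-On inducible cell line, Ca2+ influx triggered by glutamate at about EC40 plus 10 µM glycine, fluorescent dye read-out over 5 min, normalized to control wells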
T1 construct: expressed in transfected cells

[2] = biological target: T2, human GluN1/GluN2B NMDA receptors (Homo sapiens, UniProt Q13224); assay: as above; conditions: standard assay buffer (0.5 mM MgCl2 in dye loading buffer; 137 mM NaCl, 4 mM KCl in assay buffer), human GluN1/GluN2B, read-out: NR2B IC50 (μM) standard assay
T2 construct: expressed in transfected cells
T2 sequence (Q13224 27-1484, other chains not shown): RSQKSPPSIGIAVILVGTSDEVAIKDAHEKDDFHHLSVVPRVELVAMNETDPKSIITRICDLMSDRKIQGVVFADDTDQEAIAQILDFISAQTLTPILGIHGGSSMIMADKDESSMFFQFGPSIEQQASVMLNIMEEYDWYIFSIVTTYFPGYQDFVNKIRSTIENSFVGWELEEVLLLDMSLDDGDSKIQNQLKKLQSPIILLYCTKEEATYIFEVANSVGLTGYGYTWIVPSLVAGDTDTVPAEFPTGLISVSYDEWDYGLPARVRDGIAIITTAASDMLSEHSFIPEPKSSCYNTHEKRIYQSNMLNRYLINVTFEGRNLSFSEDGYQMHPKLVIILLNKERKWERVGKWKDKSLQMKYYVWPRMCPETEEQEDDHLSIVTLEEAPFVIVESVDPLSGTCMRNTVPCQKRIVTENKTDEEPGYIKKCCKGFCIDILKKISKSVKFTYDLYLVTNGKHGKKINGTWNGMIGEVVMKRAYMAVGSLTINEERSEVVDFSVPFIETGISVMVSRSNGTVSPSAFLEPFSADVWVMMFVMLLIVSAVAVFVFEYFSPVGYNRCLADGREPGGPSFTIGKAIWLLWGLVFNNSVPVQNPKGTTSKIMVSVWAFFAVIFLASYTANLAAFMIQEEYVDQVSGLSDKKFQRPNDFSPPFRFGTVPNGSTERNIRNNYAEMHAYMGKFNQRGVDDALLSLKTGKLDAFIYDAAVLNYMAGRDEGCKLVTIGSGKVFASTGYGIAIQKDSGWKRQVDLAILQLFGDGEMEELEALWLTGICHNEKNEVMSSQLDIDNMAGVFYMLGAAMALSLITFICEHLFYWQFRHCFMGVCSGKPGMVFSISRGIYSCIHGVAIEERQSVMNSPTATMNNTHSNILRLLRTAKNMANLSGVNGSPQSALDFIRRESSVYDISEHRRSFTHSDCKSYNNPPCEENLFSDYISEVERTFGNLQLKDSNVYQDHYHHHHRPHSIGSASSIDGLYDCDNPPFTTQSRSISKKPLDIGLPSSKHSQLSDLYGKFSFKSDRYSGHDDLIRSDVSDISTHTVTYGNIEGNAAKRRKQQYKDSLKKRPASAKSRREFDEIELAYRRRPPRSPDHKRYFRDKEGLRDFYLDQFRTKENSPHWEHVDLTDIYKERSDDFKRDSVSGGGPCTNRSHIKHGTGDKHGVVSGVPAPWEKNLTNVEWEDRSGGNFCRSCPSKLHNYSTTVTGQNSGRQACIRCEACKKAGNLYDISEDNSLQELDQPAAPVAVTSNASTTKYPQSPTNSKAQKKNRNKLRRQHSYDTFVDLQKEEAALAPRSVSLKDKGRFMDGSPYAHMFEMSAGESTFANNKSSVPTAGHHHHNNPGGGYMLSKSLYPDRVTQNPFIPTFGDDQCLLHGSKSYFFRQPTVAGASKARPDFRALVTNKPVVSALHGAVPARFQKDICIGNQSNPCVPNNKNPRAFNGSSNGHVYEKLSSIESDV

T1 sequence (Q13224 27-1484, other chains not shown): as above

| IC50 [1] | IC50 [2] | SMILES |
| --- | --- | --- |
| 0.127 µM |  | O=c1[nH]c2ncc(-c3cccc(C(F)(F)F)c3)cc2n1CC1CCCO1 (racemic) [Example 24, (R/S)-1-(Tetrahydrofuran-2-ylmethyl)-6-[3-(trifluoromethyl)phenyl]-3H-imidazo[4,5-b]pyridin-2-one] |
| 0.151 µM |  | O=c1[nH]c2ncc(-c3cccc(C(F)(F)F)c3)cc2n1CC(O)C1CC1 (racemic) [Example 31, (R/S)-1-(2-Cyclopropyl-2-hydroxy-ethyl)-6-[3-(trifluoromethyl)phenyl]-3H-imidazo[4,5-b]pyridin-2-one] |
| 1.23 µM |  | Cc1cc(F)ccc1-c1cnc2c(c1)n(CC1CCO1)c(=O)n2C (racemic) [Example 33, (R/S)-6-(4-Fluoro-2-methyl-phenyl)-3-methyl-1-(oxetan-2-ylmethyl)imidazo[4,5-b]pyridin-2-one] |
| 0.211 µM |  | Cn1c(=O)n(CC2CCO2)c2cc(-c3cccc(C(F)(F)F)c3)cnc21 (racemic) [Example 133, (R/S)-3-methyl-1-(oxetan-2-ylmethyl)-6-[3-(trifluoromethyl)phenyl]imidazo[4,5-b]pyridin-2-one] |
| 7.32 µM |  | CC(C(=O)NC1CC1)n1c(=O)[nH]c2ncc(-c3cccc(C(F)(F)F)c3)cc21 (racemic) [Example 202, (R/S)—N-Cyclopropyl-2-[2-oxo-6-[3-(trifluoromethyl)phenyl]-3H-imidazo[4,5-b]pyridin-1-yl]propanamide] |
| 1.1 µM |  | CC(C(=O)N1CCC1)n1c(=O)[nH]c2ncc(-c3cccc(C(F)(F)F)c3)cc21 (racemic) [Example 203, (R/S)-1-[2-(Azetidin-1-yl)-1-methyl-2-oxo-ethyl]-6-[3-(trifluoromethyl)phenyl]-3H-imidazo[4,5-1D]pyridin-2-one] |
| 0.034 µM |  | O=c1[nH]c2ncc(-c3cccc(C(F)(F)F)c3)cc2n1CC1CCO1 (racemic) [Example 216, (R/S)-1-(Oxetan-2-ylmethyl)-6-[3-(trifluoromethyl)phenyl]-3H-imidazo[4,5-b]pyridin-2-one] |
| 6.49 µM |  | O=c1[nH]c2ncc(-c3cccc(C(F)(F)F)c3)cc2n1CC1CNCCO1 (racemic) [Example 217, (R/S)-1-(Morpholin-2-ylmethyl)-6-[3-(trifluoromethyl)phenyl]-3H-imidazo[4,5-b]pyridin-2-one] |
| 0.552 µM |  | O=c1[nH]c2ncc(-c3cccc(C(F)(F)F)c3)cc2n1CC1CCCCO1 (racemic) [Example 218, (R/S)-1-(Tetrahydropyran-2-ylmethyl)-6-[3-(trifluoromethyl)phenyl]-3H-imidazo[4,5-b]pyridin-2-one] |
| 0.4 µM |  | O=c1[nH]c2ncc(-c3cccc(C(F)(F)F)c3)cc2n1CC1CC1(F)F (racemic) [Example 225, (R/S)-1-[(2,2-Difluorocyclopropyl)methyl]-6-[3-(trifluoromethyl)phenyl]-3H-imidazo[4,5-b]pyridin-2-one] |
| 0.409 µM |  | Cn1c(=O)n(CC2CCN2)c2cc(-c3cccc(C(F)(F)F)c3)cnc21 (racemic) [Example 245, (R/S)-1-(Azetidin-2-ylmethyl)-3-methyl-6-[3-(trifluoromethyl)phenyl]imidazo[4,5-b]pyridin-2-one] |
| 0.063 µM |  | O=c1[nH]c2ncc(-c3cccc(C(F)(F)F)c3)cc2n1CC1CCN1 (racemic) [Example 263, (R/S)-1-(Azetidin-2-ylmethyl)-6-[3-(trifluoromethyl)phenyl]-3H-imidazo[4,5-b]pyridin-2-one] |
|  | 0.082 µM | Cn1c(=O)n(CC(=O)N2CC(F)(F)C2)c2cc(-c3ccc(Cl)c(OC(F)F)c3)cnc21 [Example 594, 6-[4-Chloro-3-(difluoromethoxy)phenyl]-1-[2-(3,3-difluoroazetidin-1-yl)-2-oxo-ethyl]-3-methyl-imidazo[4,5-b]pyridin-2-one] |
|  | 0.974 µM | Cc1c(F)ccc(-c2cnc3c(c2)n(CC(=O)N2CCC2)c(=O)n3CF)c1F [Example 595, 1-[2-(Azetidin-1-yl)-2-oxo-ethyl]-6-(2,4-difluoro-3-methyl-phenyl)-3-(fluoromethyl)imidazo[4,5-b]pyridin-2-one] |
|  | 0.066 µM | CN(C)C(=O)Cn1c(=O)n(CF)c2ncc(-c3ccc(C(F)(F)F)s3)cc21 [Example 596, 2-[3-(Fluoromethyl)-2-oxo-6-[5-(trifluoromethyl)-2-thienyl]imidazo[4,5-b]pyridin-1-yl]-N,N-dimethyl-acetamide] |
|  | 0.063 µM | O=C(Cn1c(=O)n(CF)c2ncc(-c3ccc(C(F)(F)F)s3)cc21)N1CC(F)C1 [Example 597, 1-[2-(3-Fluoroazetidin-1-yl)-2-oxo-ethyl]-3-(fluoromethyl)-6-[5-(trifluoromethyl)-2-thienyl]imidazo[4,5-b]pyridin-2-one] |
|  | 0.173 µM | O=C(Cn1c(=O)n(CF)c2ncc(-c3ccc(C(F)(F)F)s3)cc21)N1CCCC1 [Example 598, 3-(Fluoromethyl)-1-(2-oxo-2-pyrrolidin-1-yl-ethyl)-6-[5-(trifluoromethyl)-2-thienyl]imidazo[4,5-b]pyridin-2-one] |
|  | 0.025 µM | Cc1c(F)ccc(-c2cnc3c(c2)n(CC(=O)N(C)C)c(=O)n3CF)c1F [Example 599, 2-[6-(2,4-Difluoro-3-methyl-phenyl)-3-(fluoromethyl)-2-oxo-imidazo[4,5-b]pyridin-1-yl]-N,N-dimethyl-acetamide] |
|  | 0.017 µM | Cc1c(F)ccc(-c2cnc3c(c2)n(CC(=O)N2CC(F)C2)c(=O)n3CF)c1F [Example 600, 6-(2,4-Difluoro-3-methyl-phenyl)-1-[2-(3-fluoroazetidin-1-yl)-2-oxo-ethyl]-3-(fluoromethyl)imidazo[4,5-b]pyridin-2-one] |
|  | 0.204 µM | COc1cccc(-c2cnc3[nH]c(=O)n(CC(=O)c4cccs4)c3c2)c1 [Example 602, 6-(3-Methoxyphenyl)-1-[2-oxo-2-(2-thienyl)ethyl]-3H-imidazo[4,5-b]pyridin-2-one] |
|  | 2.09 µM | CCOc1ccccc1-c1cnc2[nH]c(=O)n(Cc3cccc(OC)c3)c2c1 [Example 605, 6-(2-Ethoxyphenyl)-1-[(3-methoxyphenyl)methyl]-3H-imidazo[4,5-b]pyridin-2-one] |
|  | 2.18 µM | CCOc1ccccc1-c1cnc2[nH]c(=O)n(Cc3ccc(F)cc3)c2c1 [Example 606, 6-(2-Ethoxyphenyl)-1-[(4-fluorophenyl)methyl]-3H-imidazo[4,5-b]pyridin-2-one] |
|  | 0.336 µM | CCOc1ccc(F)cc1-c1cnc2[nH]c(=O)n(CC(=O)NC3CC3)c2c1 [Example 607, N-Cyclopropyl-2-[6-(2-ethoxy-5-fluoro-phenyl)-2-oxo-3H-imidazo[4,5-b]pyridin-1-yl]acetamide] |
|  | 1.79 µM | COCCNC(=O)Cn1c(=O)[nH]c2ncc(-c3cc(F)cc(F)c3)cc21 [Example 610, 2-[6-(3,5-Difluorophenyl)-2-oxo-3H-imidazo[4,5-b]pyridin-1-yl]-N-(2-methoxyethyl)acetamide] |
|  | 0.204 µM | CC(C)(C)C(=O)Cn1c(=O)[nH]c2ncc(-c3cccc(C(F)(F)F)c3)cc21 [Example 611, 1-(3,3-Dimethyl-2-oxo-butyl)-6-[3-(trifluoromethyl)phenyl]-3H-imidazo[4,5-b]pyridin-2-one] |
|  | 0.116 µM | COCCNC(=O)Cn1c(=O)[nH]c2ncc(-c3ccc(F)c(Cl)c3)cc21 [Example 612, 2-[6-(3-Chloro-4-fluoro-phenyl)-2-oxo-3H-imidazo[4,5-b]pyridin-1-yl]-N-(2-methoxyethyl)acetamide] |
